These compounds were tested against Aurora B/INCENP (Homo sapiens, UniProt Q96GD4) (assay: Determination of inhibition of AIK: Aurora B/INCENP direct fluorescence polarization (IMAP) assay). Settings: 10 uM ATP, 0.8 nM Aurora B/INCENP; values given as bins; read-out: IC50 of Exemplified Compounds Against AIK B.
Format: biochemical
Description: Detection of the reaction product is performed by addition of Progressive IMAP binding reagent (Molecular Devices). Reaction product may be determined quantitatively by FP using an Analyst HT plate reader (Molecular Devices) with an excitation wavelength at 485 nm and emission at 530 nm and using a Fluorescein 505 dichroic mirror.
The assay reaction may be initiated as follows: 2 ul of (3×) 300 nM Fl-Peptide/30 uM ATP was added to each well of the plate, followed by the addition of 2 ul of (3×) inhibitor (2 fold serial dilutions for 11 data points for each inhibitor) containing 15% DMSO. Two microliters of (3×) 2.4 nM AuroraB/INCENP solution may be added to initiate the reaction (final enzyme concentration was 0.8 nM for Aurora B/INCENP). The reaction mixture may then be incubated at room temperature for 45 min, and quenched and developed by addition of 20 ul of 1 to 400 diluted Progressive IMAP binding reagent in 1× proprietary Progressive IMAP binding buffer A. Fluorescence polarization readings of the resulting reaction mixtures may be measured after a 60-minute incubation at room temperature.
IC50 values may be calculated by non-linear curve fitting of the compound concentrations and fluorescent polarization values to the standard IC50 equation.

Aurora B/INCENP, sequence (Q96GD4 whole entry): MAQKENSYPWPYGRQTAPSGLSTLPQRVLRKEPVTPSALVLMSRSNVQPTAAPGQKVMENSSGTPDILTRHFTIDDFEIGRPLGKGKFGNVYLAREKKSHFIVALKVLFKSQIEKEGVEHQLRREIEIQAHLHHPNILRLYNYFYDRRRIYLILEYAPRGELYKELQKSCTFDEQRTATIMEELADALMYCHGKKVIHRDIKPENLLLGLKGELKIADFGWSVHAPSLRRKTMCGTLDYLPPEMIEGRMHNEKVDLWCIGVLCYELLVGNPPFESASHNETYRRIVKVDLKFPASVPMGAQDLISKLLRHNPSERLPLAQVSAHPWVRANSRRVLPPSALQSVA
Aurora B/INCENP, sequence (Q9NQS7 whole entry partner): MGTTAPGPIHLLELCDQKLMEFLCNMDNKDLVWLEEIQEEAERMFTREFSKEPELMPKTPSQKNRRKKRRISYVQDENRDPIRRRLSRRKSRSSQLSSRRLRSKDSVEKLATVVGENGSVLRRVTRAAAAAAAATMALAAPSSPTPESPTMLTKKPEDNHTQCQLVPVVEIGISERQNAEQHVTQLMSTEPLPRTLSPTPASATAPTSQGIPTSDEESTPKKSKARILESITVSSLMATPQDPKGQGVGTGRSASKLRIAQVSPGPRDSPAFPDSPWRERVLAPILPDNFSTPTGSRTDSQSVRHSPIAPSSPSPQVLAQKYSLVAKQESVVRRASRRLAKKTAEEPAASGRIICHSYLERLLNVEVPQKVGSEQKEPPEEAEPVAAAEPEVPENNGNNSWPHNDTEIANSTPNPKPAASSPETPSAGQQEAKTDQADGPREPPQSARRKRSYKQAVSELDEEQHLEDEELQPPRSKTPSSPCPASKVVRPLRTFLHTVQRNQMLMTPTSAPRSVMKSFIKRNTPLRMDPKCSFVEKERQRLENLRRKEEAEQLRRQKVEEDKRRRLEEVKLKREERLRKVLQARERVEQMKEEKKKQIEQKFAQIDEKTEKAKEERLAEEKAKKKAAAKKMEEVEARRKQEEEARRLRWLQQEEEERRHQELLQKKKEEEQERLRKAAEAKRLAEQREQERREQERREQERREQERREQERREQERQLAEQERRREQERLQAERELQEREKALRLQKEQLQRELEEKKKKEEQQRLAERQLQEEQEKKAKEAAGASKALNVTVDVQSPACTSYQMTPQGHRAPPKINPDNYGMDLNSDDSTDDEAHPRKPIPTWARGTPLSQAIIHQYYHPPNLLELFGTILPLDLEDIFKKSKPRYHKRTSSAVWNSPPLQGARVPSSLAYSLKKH

`CCS(=O)(=O)c1cccc(-c2cc(CN(C)C)cc3[nH]c4ncc(C)cc4c23)c1` [Compound 135, [5-(3-Ethanesulfonyl-phenyl)-3-methyl-9H-pyrido[2,3-b]indol-7-ylmethyl]-dimethyl-amine] and `CCNCc1cc(-c2cccc(S(=O)(=O)CC)c2)c2c(c1)[nH]c1ncc(C)cc12` [Compound 139, [5-(3-Ethanesulfonyl-phenyl)-3-methyl-9H-pyrido[2,3-b]indol-7-ylmethyl]-ethyl-amine] cannot be ordered by IC50: greater than 13 nM for the first, greater than 13 nM for the second.

`CCS(=O)(=O)c1cccc(-c2cc(CN3CCOCC3)cc3[nH]c4ncc(C)cc4c23)c1` [Compound 136, 5-(3-Ethanesulfonyl-phenyl)-3-methyl-7-morpholin-4-ylmethyl-9H-pyrido[2,3-b]indole] and `CCS(=O)(=O)c1cccc(-c2cc(CN3CCCC3)cc3[nH]c4ncc(C)cc4c23)c1` [Compound 138, 5-(3-Ethanesulfonyl-phenyl)-3-methyl-7-pyrrolidin-1-ylmethyl-9H-pyrido[2,3-b]indole] cannot be ordered by IC50: greater than 13 nM for the first, greater than 13 nM for the second.

First: CCS(=O)(=O)c1cccc(-c2cc(CN3CCN(C)CC3)cc3[nH]c4ncc(C)cc4c23)c1 [Compound 137, 5-(3-Ethanesulfonyl-phenyl)-3-methyl-7-(4-methyl-piperazin-1-ylmethyl)-9H-pyrido[2,3-b]indole]
Second: CCS(=O)(=O)c1cccc(-c2cc(C(=O)N3CCN(C)CC3)cc3[nH]c4ncc(C)cc4c23)c1 [Compound 141, [5-(3-Ethanesulfonyl-phenyl)-3-methyl-9H-pyrido[2,3-b]indol-7-yl]-(4-methyl-piperazin-1-yl)-methanone]
The IC50 of the first is lower: 8.6 to 13 nM for the first, greater than 13 nM for the second. The first is the more potent here.

Compared with `CCS(=O)(=O)c1cccc(-c2cc(C(=O)O)cc3[nH]c4ncc(C)cc4c23)c1` [Compound 140, 5-(3-Ethanesulfonyl-phenyl)-3-methyl-9H-pyrido[2,3-b]indole-7-carboxylic acid], `CCNC(=O)c1cc(-c2cccc(S(=O)(=O)CC)c2)c2c(c1)[nH]c1ncc(C)cc12` [Compound 146, N-ethyl-5-(3-(ethylsulfonyl)phenyl)-3-methyl-9H-pyrido[2,3-b]indole-7-carboxamide] is higher in IC50: 4 to 5.5 nM for the first, 5.6 to 8.5 nM for the second.

First: CCS(=O)(=O)c1cccc(-c2cc(C(=O)NCCN(C)C)cc3[nH]c4ncc(C)cc4c23)c1 [Compound 142, 5-(3-Ethanesulfonyl-phenyl)-3-methyl-9H-pyrido[2,3-b]indole-7-carboxylic acid (2-dimethylamino-ethyl)-amide]
Second: CCS(=O)(=O)c1cccc(-c2cc(C(=O)NCCCN(C)C)cc3[nH]c4ncc(C)cc4c23)c1 [Compound 143, 5-(3-Ethanesulfonyl-phenyl)-3-methyl-9H-pyrido[2,3-b]indole-7-carboxylic acid (3-dimethylamino-propyl)-amide]
The IC50 of the first is lower: 5.6 to 8.5 nM for the first, greater than 13 nM for the second.

`CCS(=O)(=O)c1cccc(-c2cc(C(=O)N3CCC(N(C)C)C3)cc3[nH]c4ncc(C)cc4c23)c1` (centres unmarked) [Compound 145, (3-Dimethylamino-pyrrolidin-1-yl)-[5-(3-ethanesulfonyl-phenyl)-3-methyl-9H-pyrido[2,3-b]indol-7-yl]-methanone] and `CCS(=O)(=O)c1cccc(-c2c(Br)c(C(=O)OC)cc3[nH]c4ncc(C)cc4c23)c1` [Compound 147, 6-Bromo-5-(3-ethanesulfonyl-phenyl)-3-methyl-9H-pyrido[2,3-b]indole-7-carboxylic acid methyl ester] cannot be ordered by IC50: greater than 13 nM for the first, greater than 13 nM for the second.

`CCS(=O)(=O)c1cccc(-c2cc(C(=O)OC)c(Br)c3[nH]c4ncc(C)cc4c23)c1` [Compound 148, 8-Bromo-5-(3-ethanesulfonyl-phenyl)-3-methyl-9H-pyrido[2,3-b]indole-7-carboxylic acid methyl ester] and `CCS(=O)(=O)c1cccc(-c2cc(C(=O)OC)c(Cl)c3[nH]c4ncc(C)cc4c23)c1` [Compound 150, 8-Chloro-5-(3-ethanesulfonyl-phenyl)-3-methyl-9H-pyrido[2,3-b]indole-7-carboxylic acid methyl ester] fall in the same range of IC50: 4 to 5.5 nM for the first, 4 to 5.5 nM for the second.

Compared with `CCS(=O)(=O)c1cccc(-c2c(Cl)c(C(=O)OC)cc3[nH]c4ncc(C)cc4c23)c1` [Compound 149, 6-Chloro-5-(3-ethanesulfonyl-phenyl)-3-methyl-9H-pyrido[2,3-b]indole-7-carboxylic acid methyl ester], `CCS(=O)(=O)c1cccc(-c2ccc(O)c3[nH]c4ncc(C)cc4c23)c1` [Compound 158, 5-(3-(ethylsulfonyl)phenyl)-3-methyl-9H-pyrido[2,3-b]indol-8-ol] is lower in IC50: greater than 13 nM for the first, less than 4 nM for the second. The second is the more potent here.

`Cc1cnc2[nH]c3cc(C(=O)O)cc(SCc4ccccc4)c3c2c1` [Compound 151, 5-(benzylthio)-3-methyl-9H-pyrido[2,3-b]indole-7-carboxylic acid] and `Cc1cnc2[nH]c3cc(C(=O)NCCN(C)C)cc(SCc4ccccc4)c3c2c1` [Compound 152, 5-(benzylthio)-N-(2-(dimethylamino)ethyl)-3-methyl-9H-pyrido[2,3-b]indole-7-carboxamide] cannot be ordered by IC50: greater than 13 nM for the first, greater than 13 nM for the second.

First: CCNS(=O)(=O)c1cccc(-c2cc(C(=O)NC3CCN(C)CC3)c(C)c3[nH]c4ncc(C)cc4c23)c1 [Compound 153]
Second: Cc1cnc2[nH]c3c(C)c(C(=O)NC4CCN(C)CC4)cc(-c4cccc(S(=O)(=O)C5CC5)c4)c3c2c1 [Compound 154, 5-(3-(cyclopropylsulfonyl)phenyl)-3,8-dimethyl-N-(1-methylpiperidin-4-yl)-9H-pyrido[2,3-b]indole-7-carboxamide]
The IC50 of the first is higher: greater than 13 nM for the first, 8.6 to 13 nM for the second. The second is the more potent here.

Compared with `COc1ccc(-c2cccc(S(=O)(=O)N3CCCC3)c2)c2c1[nH]c1ncc(C)cc12` [Compound 159, 8-methoxy-3-methyl-5-(3-(pyrrolidin-1-ylsulfonyl)phenyl)-9H-pyrido[2,3-b]indole], `COc1ccc(-c2cccc(S(=O)(=O)[C@@H]3CCNC3)c2)c2c1[nH]c1ncc(C)cc12` [Compound 160, (R)-8-methoxy-3-methyl-5-(3-(pyrrolidin-3-ylsulfonyl)phenyl)-9H-pyrido[2,3-b]indole] is lower in IC50: 8.6 to 13 nM for the first, 5.6 to 8.5 nM for the second. The second is the more potent here.

Compared with `COc1ccc(-c2cccc(NC(C)=O)c2)c2c1[nH]c1ncc(C)cc12` [Compound 162, N-(3-(8-methoxy-3-methyl-9H-pyrido[2,3-b]indol-5-yl)phenyl)acetamide], `COc1ccc(-c2cccc(NC(=O)C3CC3)c2)c2c1[nH]c1ncc(C)cc12` [Compound 163, N-(3-(8-methoxy-3-methyl-9H-pyrido[2,3-b]indol-5-yl)phenyl)cyclopropanecarboxamide] is higher in IC50: 5.6 to 8.5 nM for the first, 8.6 to 13 nM for the second. The first is the more potent here.

First: COc1ccc(-c2cccc(C(=O)NC3CC3)c2)c2c1[nH]c1ncc(C)cc12 [Compound 164, N-cyclopropyl-3-(8-methoxy-3-methyl-9H-pyrido[2,3-b]indol-5-yl)benzamide]
Second: COc1ccc(-c2cccc(C(=O)NCCO)c2)c2c1[nH]c1ncc(C)cc12 [Compound 168, N-(2-hydroxyethyl)-3-(8-methoxy-3-methyl-9H-pyrido[2,3-b]indol-5-yl)benzamide]
The IC50 of the first is lower: 5.6 to 8.5 nM for the first, 8.6 to 13 nM for the second.

Compared with `CCN(CC)C(=O)c1cccc(-c2ccc(OC)c3[nH]c4ncc(C)cc4c23)c1` [Compound 165, N,N-diethyl-3-(8-methoxy-3-methyl-9H-pyrido[2,3-b]indol-5-yl)benzamide], `CCNS(=O)(=O)c1cccc(-c2ccc(OC)c3[nH]c4ncc(C)cc4c23)c1` [Compound 170, N-ethyl-3-(8-methoxy-3-methyl-9H-pyrido[2,3-b]indol-5-yl)benzenesulfonamide] is lower in IC50: 4 to 5.5 nM for the first, less than 4 nM for the second. The second is the more potent here.

Compared with `COc1ccc(-c2ccc3c(c2)OCO3)c2c1[nH]c1ncc(C)cc12` [Compound 166, 5-(benzo[d][1,3]dioxol-5-yl)-8-methoxy-3-methyl-9H-pyrido[2,3-b]indole], `CCOc1ccc(-c2cccc(S(=O)(=O)CC)c2)c2c1[nH]c1ncc(C)cc12` [Compound 171, 8-ethoxy-5-(3-(ethylsulfonyl)phenyl)-3-methyl-9H-pyrido[2,3-b]indole] is lower in IC50: greater than 13 nM for the first, 5.6 to 8.5 nM for the second. The second is the more potent here.

`CCS(=O)(=O)c1cccc(-c2ccc(OC(F)F)c3[nH]c4ncc(C)cc4c23)c1` [Compound 172, 8-(difluoromethoxy)-5-(3-(ethylsulfonyl)phenyl)-3-methyl-9H-pyrido[2,3-b]indole] and `CCS(=O)(=O)c1cccc(-c2ccc(OCC(F)(F)F)c3[nH]c4ncc(C)cc4c23)c1` [Compound 173, 5-(3-(ethylsulfonyl)phenyl)-3-methyl-8-(2,2,2-trifluoroethoxy)-9H-pyrido[2,3-b]indole] fall in the same range of IC50: 5.6 to 8.5 nM for the first, 5.6 to 8.5 nM for the second.

First: CCS(=O)(=O)c1cccc(-c2ccc(OCC3CCN(C)CC3)c3[nH]c4ncc(C)cc4c23)c1 [Compound 177, 5-(3-(ethylsulfonyl)phenyl)-3-methyl-8-((1-methylpiperidin-4-yl)methoxy)-9H-pyrido[2,3-b]indole]
Second: Cc1cnc2[nH]c3c(OCC4CCN(C)CC4)ccc(-c4cccc(S(=O)(=O)C5CC5)c4)c3c2c1 [Compound 179, 5-(3-(cyclopropylsulfonyl)phenyl)-3-methyl-8-((1-methylpiperidin-4-yl)methoxy)-9H-pyrido[2,3-b]indole]
The IC50 of the first is higher: 8.6 to 13 nM for the first, 5.6 to 8.5 nM for the second.

In the case of `Cc1cnc2[nH]c3c(OCC4CCN(C)CC4)ccc(-c4cccc(C(=O)NC5CC5)c4)c3c2c1` [Compound 178, N-cyclopropyl-3-(3-methyl-8-((1-methylpiperidin-4-yl)methoxy)-9H-pyrido[2,3-b]indol-5-yl)benzamide], the IC50 is reported as greater than 13 nM.

Reference: US20090312288A1 (TAKEDA PHARMACEUTICAL COMPANY LIMITED, priority 2008, published 2009)
